{"source": "patent US10538567B2", "about": "“Compounds as peptidic trigonal GLP1/glucagon/GIP receptor agonists” (priority 2016, dated 2020)", "key": {"male ApoE KO mice": {"tested_on": "male ApoE KO mice", "experiment": "Anti-atherosclerotic activity in ApoE KO mice, 16 weeks minipump infusion", "format": "in vivo", "details": "150 μg/kg/day", "from_the_text": "The apolipoprotein E (ApoE) knockout (KO) mouse model is widely used to investigate atherosclerosis. These mice spontaneously develop atherosclerotic lesions that are morphologically similar to those observed in humans (Meir & Leitersdorf 2004, Arterioscler Thromb Vasc Biol 24: 1006-1014, Rosenfeld et al. 2000, Arterioscler Thromb Vasc Biol 20: 2587-2592).\nMale ApoE KO mice (B.129P2-apoetm1Unc/J) were randomly allocated to control or treatment groups (N=15 per group); wild-type mice (C57BL6/J) received vehicle treatment and acted as a second, healthy control.\nApoE KO and wild-type mice received constant 16 weeks infusion using subcutaneous osmotic minipumps (ALZET™) filled with either vehicle (sterile acetate buffer, pH 4.5), Peptides SEQ ID NO. 6 & SEQ ID NO. 11 (150 μg/kg/day) or with Liraglutide (600 μg/kg/day). Body weight and food intake was monitored throughout the study on a weekly basis.\nBlood samples for blood lipid analysis were drawn before treatment and at weeks 7 and 16 to analyze total cholesterol, low density lipoprotein (LDL) cholesterol and high density lipoprotein (HDL) cholesterol (not shown).\nThe aorta was dissected and aortic atherosclerotic plaque formation was measured as absolute and relative plaque area (% oilred stained area of total aortic surface area) using quantitative and automated image analysis."}, "human GIP receptor": {"target": "T1, human GIP receptor (Homo sapiens, UniProt P48546)", "T1 construct": "expressed in transfected cells; host or cells: HEK-293", "T1 sequence (P48546 22-466)": "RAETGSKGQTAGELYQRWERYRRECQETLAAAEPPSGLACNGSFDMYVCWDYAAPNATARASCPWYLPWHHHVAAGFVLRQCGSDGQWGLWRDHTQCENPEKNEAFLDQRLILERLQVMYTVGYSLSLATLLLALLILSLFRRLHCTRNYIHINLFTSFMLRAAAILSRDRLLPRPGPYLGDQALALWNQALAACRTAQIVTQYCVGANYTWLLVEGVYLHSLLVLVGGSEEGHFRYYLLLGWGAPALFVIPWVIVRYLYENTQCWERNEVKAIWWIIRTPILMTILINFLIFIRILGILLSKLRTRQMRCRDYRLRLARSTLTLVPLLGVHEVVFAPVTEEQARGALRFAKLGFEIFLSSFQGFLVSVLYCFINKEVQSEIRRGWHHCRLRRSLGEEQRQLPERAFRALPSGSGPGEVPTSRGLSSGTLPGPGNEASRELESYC", "experiment": "cAMP response (HTRF) of HEK-293 cells stably expressing human GIP receptor", "format": "cell-based", "details": "Table 8; read-out: EC50 hGIP R", "experimental": "Agonism of compounds for the receptors was determined by functional assays measuring cAMP response of HEK-293 cell lines stably expressing human GLP-1, GIP or glucagon receptor.\ncAMP content of cells was determined using a kit from Cisbio Corp. (cat. no. 62AM4PEJ) based on HTRF (Homogenous Time Resolved Fluorescence). For preparation, cells were split into T175 culture flasks and grown overnight to near confluency in medium (DMEM/10% FBS). Medium was then removed and cells washed with PBS lacking calcium and magnesium, followed by proteinase treatment with accutase (Sigma-Aldrich cat. no. A6964). Detached cells were washed and resuspended in assay buffer (1×HBSS; 20 mM HEPES, 0.1% BSA, 2 mM IBMX) and cellular density determined. They were then diluted to 400000 cells/ml and 25 μl-aliquots dispensed into the wells of 96-well plates. For measurement, 25 μl of test compound in assay buffer was added to the wells, followed by incubation for 30 minutes at room temperature. After addition of HTRF reagents diluted in lysis buffer (kit components), the plates were incubated for 1 hr, followed by measurement of the fluorescence ratio at 665/616 nm. In vitro potency of agonists was quantified by determining the concentrations that caused 50% activation of maximal response (EC50).\nPotencies of peptidic compounds at the GLP-1, glucagon and GIP receptors were determined by exposing cells expressing human glucagon receptor (hGlucagon R), human GIP receptor (hGIP-R) or human GLP-1 receptor (hGLP-1 R) to the listed compounds at increasing concentrations and measuring the formed cAMP as described in Methods."}}, "note": "Numbered stars: 1 amine (or outer) side, 2 acyl side, 3 side chain; on linkers, the order of the positions; unused ones are H or OH. Square brackets hold non-standard residues; d marks the D form. Side chains are listed from the residue outwards. Peptide text beside a SMILES is read from it. * marks the point of attachment. γGlu = O=C(O)[C@H](CCC(=O)[*:2])N[*:1]; Palmitoyl = CCCCCCCCCCCCCCCC(=O)*; Aib = CC(C)(N)C(=O)O"}
{"smiles": "CCCCCCCCCCCCCCCC(=O)N[C@@H](CCC(=O)N[C@@H](CCC(=O)NCCCC[C@H](NC(=O)[C@H](CC(C)C)NC(=O)[C@H](CCCCN)NC(=O)[C@H](CO)NC(=O)[C@H](CC(C)C)NC(=O)[C@H](CC(=O)O)NC(=O)[C@H](CO)NC(=O)[C@@H](NC(=O)[C@H](Cc1ccccc1)NC(=O)[C@@H](NC(=O)CNC(=O)[C@H](Cc1c[nH]cn1)NC(=O)C(C)(C)NC(=O)[C@@H](N)Cc1c[nH]cn1)[C@@H](C)O)[C@@H](C)O)C(=O)N[C@@H](CCC(=O)O)C(=O)N[C@@H](CCC(=O)O)C(=O)N[C@@H](CCC(N)=O)C(=O)N[C@@H](CCCNC(=N)N)C(=O)N[C@@H](CCC(N)=O)C(=O)N[C@@H](CCCCN)C(=O)N[C@@H](CCC(=O)O)C(=O)N[C@@H](Cc1ccccc1)C(=O)N[C@H](C(=O)N[C@@H](CCC(=O)O)C(=O)N[C@@H](Cc1c[nH]c2ccccc12)C(=O)N[C@@H](CC(C)C)C(=O)N[C@@H](CCCCN)C(=O)N[C@@H](C)C(=O)NCC(=O)NCC(=O)N[C@@H](Cc1c[nH]cn1)C(=O)N1CCC[C@H]1C(=O)N[C@@H](CO)C(=O)NC(C)(C)C(=O)N[C@@H](CCCCN)C(=O)N1CCC[C@H]1C(=O)N1CCC[C@H]1C(=O)N1CCC[C@H]1C(=O)N[C@@H](CCCCN)C(N)=O)[C@@H](C)CC)C(=O)O)C(=O)O", "note": "[SEQ ID NO: 6, H-Aib-H-G-T-F-T-S-D-L-S-K-L-K[gGlu-gGlu-Palm]-E-E-Q-R-Q-K-E-F-I-E-W-L-K-A-G-G-H-P-S-Aib-K-P-P-P-K-NH2]", "values": [{"measurement": "reduction of atherosclerotic plaques relative to vehicle control", "setting": "male ApoE KO mice; 4 months (16 weeks) s.c. minipump", "result": 63, "unit": "%"}, {"measurement": "LDL-cholesterol", "setting": "male ApoE KO mice; 16 weeks", "result": "marked reduction"}]}
{"smiles": "CCCCCCCCCCCCCCCC(=O)N[C@@H](CCC(=O)N[C@@H](CCC(=O)NCCCC[C@H](NC(=O)[C@H](CC(C)C)NC(=O)[C@H](CCCCN)NC(=O)[C@H](CO)NC(=O)[C@H](CC(C)C)NC(=O)[C@H](CC(=O)O)NC(=O)[C@H](CO)NC(=O)[C@@H](NC(=O)[C@H](Cc1ccccc1)NC(=O)[C@@H](NC(=O)CNC(=O)[C@H](Cc1c[nH]cn1)NC(=O)C(C)(C)NC(=O)[C@@H](N)Cc1c[nH]cn1)[C@@H](C)O)[C@@H](C)O)C(=O)N[C@@H](CCC(=O)O)C(=O)N[C@@H](CCC(=O)O)C(=O)N[C@@H](CCC(N)=O)C(=O)N[C@@H](CCCNC(=N)N)C(=O)N[C@@H](CCC(N)=O)C(=O)N[C@@H](CCCCN)C(=O)N[C@@H](CCC(=O)O)C(=O)N[C@@H](Cc1ccccc1)C(=O)N[C@H](C(=O)N[C@@H](CCC(=O)O)C(=O)N[C@@H](Cc1c[nH]c2ccccc12)C(=O)N[C@@H](CC(C)C)C(=O)N[C@@H](CCCCN)C(=O)N[C@@H](C)C(=O)N[C@H](C)C(=O)NCC(=O)N[C@@H](Cc1c[nH]cn1)C(=O)N1CCC[C@H]1C(=O)N[C@@H](CO)C(=O)NC(C)(C)C(=O)N[C@@H](CCCCN)C(=O)N1CCC[C@H]1C(=O)N1CCC[C@H]1C(=O)N1CCC[C@H]1C(=O)N[C@@H](CCCCN)C(N)=O)[C@@H](C)CC)C(=O)O)C(=O)O", "note": "[SEQ ID NO: 7, H-Aib-H-G-T-F-T-S-D-L-S-K-L-K[gGlu-gGlu-Palm]-E-E-Q-R-Q-K-E-F-I-E-W-L-K-A-dAla-G-H-P-S-Aib-K-P-P-P-K-NH2] (H-H[Aib]HGTFTSDLSKLK([γGlu-γGlu-Palmitoyl])EEQRQKEFIEWLKA[dA]GHPS[Aib]KPPPK-NH2)", "values": [{"measurement": "EC50", "setting": "human GIP receptor", "result": 2.6, "unit": "pM"}]}
{"smiles": "CCCCCCCCCCCCCCCC(=O)N[C@@H](CCC(=O)N[C@@H](CCC(=O)NCCCC[C@H](NC(=O)[C@H](CC(C)C)NC(=O)[C@H](CCCCN)NC(=O)[C@H](CO)NC(=O)[C@H](CC(C)C)NC(=O)[C@H](CC(=O)O)NC(=O)[C@H](CO)NC(=O)[C@@H](NC(=O)[C@H](Cc1ccccc1)NC(=O)[C@@H](NC(=O)CNC(=O)[C@H](Cc1c[nH]cn1)NC(=O)C(C)(C)NC(=O)[C@@H](N)Cc1c[nH]cn1)[C@@H](C)O)[C@@H](C)O)C(=O)N[C@@H](CCC(=O)O)C(=O)N[C@@H](CCC(=O)O)C(=O)N[C@@H](CCC(N)=O)C(=O)N[C@@H](CCCNC(=N)N)C(=O)N[C@@H](CCC(N)=O)C(=O)N[C@@H](CCCCN)C(=O)N[C@@H](CCC(=O)O)C(=O)N[C@@H](Cc1ccccc1)C(=O)N[C@H](C(=O)N[C@@H](CCC(=O)O)C(=O)N[C@@H](Cc1c[nH]c2ccccc12)C(=O)N[C@@H](CC(C)C)C(=O)N[C@@H](CCCCN)C(=O)N[C@@H](C)C(=O)N[C@H](C)C(=O)NCC(=O)N1CCC[C@H]1C(=O)N1CCC[C@H]1C(=O)N[C@@H](CO)C(=O)NC(C)(C)C(=O)N[C@@H](CCCCN)C(=O)N1CCC[C@H]1C(=O)N1CCC[C@H]1C(=O)N1CCC[C@H]1C(=O)N[C@@H](CCCCN)C(N)=O)[C@@H](C)CC)C(=O)O)C(=O)O", "note": "[SEQ ID NO: 9, H-Aib-H-G-T-F-T-S-D-L-S-K-L-K[gGlu-gGlu-Palm]-E-E-Q-R-Q-K-E-F-I-E-W-L-K-A-dAla-G-P-P-S-Aib-K-P-P-P-K-NH2] (H-H[Aib]HGTFTSDLSKLK([γGlu-γGlu-Palmitoyl])EEQRQKEFIEWLKA[dA]GPPS[Aib]KPPPK-NH2)", "values": [{"measurement": "EC50", "setting": "human GIP receptor", "result": 2.6, "unit": "pM"}]}
{"smiles": "CCCCCCCCCCCCCCCC(=O)N[C@@H](CCC(=O)N[C@@H](CCC(=O)NCCCC[C@H](NC(=O)[C@H](CC(C)C)NC(=O)[C@H](CCCCN)NC(=O)[C@H](CO)NC(=O)[C@H](CC(C)C)NC(=O)[C@H](CC(=O)O)NC(=O)[C@H](CO)NC(=O)[C@@H](NC(=O)[C@H](Cc1ccccc1)NC(=O)[C@@H](NC(=O)CNC(=O)[C@H](Cc1c[nH]cn1)NC(=O)C(C)(C)NC(=O)[C@@H](N)Cc1c[nH]cn1)[C@@H](C)O)[C@@H](C)O)C(=O)N[C@@H](CCC(=O)O)C(=O)N[C@@H](CCC(=O)O)C(=O)N[C@@H](CCC(N)=O)C(=O)N[C@@H](CCCNC(=N)N)C(=O)N[C@@H](CCC(N)=O)C(=O)NC(C)(C)C(=O)N[C@@H](CCC(=O)O)C(=O)N[C@@H](Cc1ccccc1)C(=O)N[C@H](C(=O)N[C@@H](CCC(=O)O)C(=O)N[C@@H](Cc1c[nH]c2ccccc12)C(=O)N[C@@H](CC(C)C)C(=O)N[C@@H](CCCCN)C(=O)N[C@@H](C)C(=O)NCC(=O)NCC(=O)N1CCC[C@H]1C(=O)N1CCC[C@H]1C(=O)N[C@@H](CO)C(=O)NC(C)(C)C(=O)N[C@@H](CCCCN)C(=O)N1CCC[C@H]1C(=O)N1CCC[C@H]1C(=O)N1CCC[C@H]1C(=O)N[C@@H](CCCCN)C(N)=O)[C@@H](C)CC)C(=O)O)C(=O)O", "note": "[SEQ ID NO: 10, H-Aib-H-G-T-F-T-S-D-L-S-K-L-K[gGlu-gGlu-Palm]-E-E-Q-R-Q-Aib-E-F-I-E-W-L-K-A-G-G-P-P-S-Aib-K-P-P-P-K-NH2]", "values": [{"measurement": "EC50", "setting": "human GIP receptor", "result": 1.1, "unit": "pM"}]}
{"smiles": "CCCCCCCCCCCCCCCC(=O)N[C@@H](CCC(=O)N[C@@H](CCC(=O)NCCCC[C@H](NC(=O)[C@H](CC(C)C)NC(=O)[C@H](CCCCN)NC(=O)[C@H](CO)NC(=O)[C@H](CC(C)C)NC(=O)[C@H](CC(=O)O)NC(=O)[C@H](CO)NC(=O)[C@@H](NC(=O)[C@H](Cc1ccccc1)NC(=O)[C@@H](NC(=O)CNC(=O)[C@H](Cc1c[nH]cn1)NC(=O)C(C)(C)NC(=O)[C@@H](N)Cc1c[nH]cn1)[C@@H](C)O)[C@@H](C)O)C(=O)N[C@@H](CCC(=O)O)C(=O)N[C@@H](CCC(=O)O)C(=O)N[C@@H](CCC(N)=O)C(=O)N[C@@H](CCCNC(=N)N)C(=O)N[C@@H](CCC(N)=O)C(=O)NC(C)(C)C(=O)N[C@@H](CCC(=O)O)C(=O)N[C@@H](Cc1ccccc1)C(=O)N[C@H](C(=O)N[C@@H](CCC(=O)O)C(=O)N[C@@H](Cc1c[nH]c2ccccc12)C(=O)N[C@@H](CC(C)C)C(=O)N[C@@H](CCCCN)C(=O)N[C@@H](C)C(=O)NCC(=O)NCC(=O)N[C@@H](Cc1c[nH]cn1)C(=O)N1CCC[C@H]1C(=O)N[C@@H](CO)C(=O)NC(C)(C)C(=O)N[C@@H](CCCCN)C(=O)N1CCC[C@H]1C(=O)N1CCC[C@H]1C(=O)N1CCC[C@H]1C(=O)N[C@@H](CCCCN)C(N)=O)[C@@H](C)CC)C(=O)O)C(=O)O", "note": "[SEQ ID NO: 12, H-Aib-H-G-T-F-T-S-D-L-S-K-L-K[gGlu-gGlu-Palm]-E-E-Q-R-Q-Aib-E-F-I-E-W-L-K-A-G-G-H-P-S-Aib-K-P-P-P-K-NH2]", "values": [{"measurement": "EC50", "setting": "human GIP receptor", "result": 1.9, "unit": "pM"}]}
